Here are results for 1 molecule from ChEMBL document CHEMBL4334471, “Discovery of 1,8-disubstituted-[1,2,3]triazolo[4,5-c]quinoline derivatives as a new class of Hippo signaling pathway inhibitors” (Bioorg Med Chem Lett, 2019).

Test [1] has as its target Rhodopsin kinase GRK1 (Homo sapiens) (UniProt Q15835). Kind of test: Inhibition of recombinant full length human GRK1 assessed as residual activity at 10 uM using KKKKERLLDDRHD as substrate at 40 mins in presence of [gamma-33ATP] by scintillation counting based radiometry assay relative to control.
The target of test [2] is Serine/threonine-protein kinase PLK2 (Homo sapiens) (UniProt Q9NYY3). Put plainly: Inhibition of recombinant human SNK (65 to 409 residues) assessed as residual activity at 10 uM using casein as substrate incubated for 40 mins in presence of [gamma33P]ATP by scintillation counting based radiometry assay relative to control.
Test [3] concerns the target Tyrosine-protein kinase JAK3 (Homo sapiens) (UniProt P52333). Kind of test: Inhibition of human JAK3 (781 to end residues) assessed as residual activity at 10 uM using GGEEEEYFELVKKKK as substrate after 40 mins by [gamma-33ATP] radiometric assay relative to control.
In test [4] the target is STE20-like serine/threonine-protein kinase (Homo sapiens) (UniProt Q9H2G2). Put plainly: Inhibition of recombinant human SLK (1 to 373 residues) assessed as residual activity at 10 uM using RLGRDKYKTLRQIRQ as substrate incubated for 40 mins in presence of [gamma33P]ATP by scintillation counting based radiometry assay relative to control.
The test system of test [5] is Mast/stem cell growth factor receptor Kit (Homo sapiens), P10721 [V560G]. Kind of test: Inhibition of recombinant human C-Kit V560G mutant (544 to end residues) assessed as residual activity at 10 uM poly(Glu, Tyr) 4:1 as substrate incubated 40 mins in presence of [gamma-33ATP] by scintillation counting based radiometry assay relative to control.
Mast/stem cell growth factor receptor Kit (Homo sapiens), P10721 [V560G], sequence (P10721 whole entry V560G): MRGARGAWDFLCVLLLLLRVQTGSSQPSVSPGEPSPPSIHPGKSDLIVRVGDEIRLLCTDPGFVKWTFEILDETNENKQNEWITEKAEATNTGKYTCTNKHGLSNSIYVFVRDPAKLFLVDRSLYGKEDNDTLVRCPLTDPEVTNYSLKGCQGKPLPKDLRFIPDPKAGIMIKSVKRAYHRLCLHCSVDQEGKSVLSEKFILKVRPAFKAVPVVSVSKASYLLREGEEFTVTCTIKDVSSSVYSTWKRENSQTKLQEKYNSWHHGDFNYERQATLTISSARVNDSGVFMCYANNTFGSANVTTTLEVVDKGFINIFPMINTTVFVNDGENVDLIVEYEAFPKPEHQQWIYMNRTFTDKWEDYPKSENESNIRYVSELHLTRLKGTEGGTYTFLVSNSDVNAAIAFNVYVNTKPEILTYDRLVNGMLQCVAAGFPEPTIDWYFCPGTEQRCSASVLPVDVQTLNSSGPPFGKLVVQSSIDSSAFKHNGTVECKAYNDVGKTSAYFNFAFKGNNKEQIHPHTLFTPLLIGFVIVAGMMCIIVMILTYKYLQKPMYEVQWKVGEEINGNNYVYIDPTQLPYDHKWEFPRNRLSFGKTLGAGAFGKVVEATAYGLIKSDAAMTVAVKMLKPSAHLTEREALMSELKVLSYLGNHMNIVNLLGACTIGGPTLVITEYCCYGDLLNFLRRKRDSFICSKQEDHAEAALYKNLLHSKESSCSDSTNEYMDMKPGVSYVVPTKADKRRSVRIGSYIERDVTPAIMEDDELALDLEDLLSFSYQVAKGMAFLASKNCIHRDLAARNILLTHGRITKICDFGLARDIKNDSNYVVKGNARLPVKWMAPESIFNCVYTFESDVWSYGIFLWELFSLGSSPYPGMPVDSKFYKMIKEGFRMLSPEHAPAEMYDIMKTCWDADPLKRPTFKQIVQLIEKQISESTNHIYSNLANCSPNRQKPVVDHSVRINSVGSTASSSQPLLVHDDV
Test [6] deals with Ribosomal protein S6 kinase alpha-5 (Homo sapiens) (UniProt O75582). Kind of test: Inhibition of recombinant human MSK1 (2 to end residues) assessed as residual activity at 10 uM using GRPRTSSFAEGKK as substrate incubated for 40 mins in presence of [gamma-33ATP by scintillation counting based radiometry assay relative to control.
Test [7] deals with Dual specificity protein kinase CLK3 (Homo sapiens) (UniProt P49761). Kind of test: Inhibition of recombinant full length human CLK3 assessed as residual activity at 10 uM using ERMRPRKRQGSVRRRV as substrate incubated 40 mins in presence of [gamma-33ATP] by scintillation counting based radiometry assay relative to control.
Test [8] has as its target Wee1-like protein kinase 2 (Homo sapiens) (UniProt P0C1S8). Put plainly: Inhibition of recombinant full length human WEE1b assessed as residual activity at 10 uM using LSNLYHQGKFLQTFCGSPLYRRR as substrate incubated for 40 mins in presence of [gamma33P]ATP by scintillation counting based radiometry assay relative to control.
For test [9], the target named is Mast/stem cell growth factor receptor Kit (Homo sapiens) (UniProt P10721). Kind of test: Inhibition of recombinant human C-Kit (544 to end residues) using poly(Glu, Tyr) 4:1 as substrate assessed as residual activity at 10 uM in presence of [gamma-33ATP] by scintillation counting based radiometry assay relative to control.
Mast/stem cell growth factor receptor Kit (Homo sapiens), sequence (P10721 whole entry): as the sequence (P10721 whole entry V560G) above, with G560V counted along it
Test [10] concerns PI3-kinase p110-alpha/p85-alpha (Homo sapiens), P27986+P42336 [H1047R]. Put plainly: Inhibition of recombinant full-length human PI3K p110/p85 H1047R mutant assessed as residual activity at 10 uM using phosphatidylinositol-4, 5-bisphosphate as substrate incubated for 40 mins in presence of [gamma33P]ATP by scintillation counting based radiometry assay relative to control.
Test [11] concerns the target Calcium/calmodulin-dependent protein kinase type IV (Homo sapiens) (UniProt Q16566). Kind of test: Inhibition of recombinant full length human CaMK4 assessed as residual activity at 10 uM using […] incubated for 40 mins in presence of [gamma-33ATP] by scintillation counting based radiometry assay relative to control.
Test [12] addresses MAP/microtubule affinity-regulating kinase 3 (Homo sapiens) (UniProt P27448). Put plainly: Inhibition of recombinant full length human MARK3 assessed as residual activity at 10 uM using KKKVSRSGLYRSPSMPENLNRPR as substrate incubated for 40 mins in presence of [gamma-33ATP by scintillation counting based radiometry assay relative to control.
In test [13] the target is Serine/threonine-protein kinase VRK1 (Homo sapiens) (UniProt Q99986). Kind of test: Inhibition of recombinant human VRK1 assessed as residual activity at 10 uM in presence of [gamma33P]ATP by scintillation counting based radiometry assay relative to control.
Serine/threonine-protein kinase VRK1 (Homo sapiens), sequence (Q99986 whole entry, the tested form may be a part): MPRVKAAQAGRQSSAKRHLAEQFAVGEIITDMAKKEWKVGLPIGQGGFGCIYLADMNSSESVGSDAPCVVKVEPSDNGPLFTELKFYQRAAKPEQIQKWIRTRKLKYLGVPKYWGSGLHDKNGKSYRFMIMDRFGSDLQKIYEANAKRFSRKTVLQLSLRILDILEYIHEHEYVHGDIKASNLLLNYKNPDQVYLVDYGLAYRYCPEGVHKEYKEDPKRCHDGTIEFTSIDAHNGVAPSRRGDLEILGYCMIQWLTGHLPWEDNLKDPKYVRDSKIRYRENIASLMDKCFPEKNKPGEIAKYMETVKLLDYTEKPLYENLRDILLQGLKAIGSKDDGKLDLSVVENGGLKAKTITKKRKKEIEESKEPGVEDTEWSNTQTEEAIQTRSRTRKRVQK
In test [14] the target is MAPK/MAK/MRK overlapping kinase (Homo sapiens) (UniProt Q9UQ07). Kind of test: Inhibition of recombinant human MOK (1 to 343 residues) assessed as residual activity at 10 uM using RSRSRSRSRSRSR as substrate incubated for 40 mins in presence of [gamma-33ATP by scintillation counting based radiometry assay relative to control.
Test [15] addresses Aurora kinase B (Homo sapiens) (UniProt Q96GD4). Kind of test: Inhibition of recombinant full length human Aurora B assessed as residual activity at 10 uM using AKRRRLSSLRA as substrate incubated for 40 mins in presence of [gamma-33ATP] by scintillation counting based radiometry assay relative to control.
The target of test [16] is Inhibitor of nuclear factor kappa-B kinase subunit epsilon (Homo sapiens) (UniProt Q14164). Put plainly: Inhibition of full length human IKKepsilon assessed as residual activity at 10 uM using peptide as substrate after 40 mins by [gamma-33ATP] radiometric assay relative to control.
Test [17] concerns the target CDK3/Cyclin E (Homo sapiens) (UniProt P24864+Q00526). Kind of test: Inhibition of recombinant full length human CDK3/CyclinE assessed as residual activity at 10 uM using Histone H1 as substrate incubated for 40 mins in presence of [gamma-33ATP] by scintillation counting based radiometry assay relative to control. The test is classed as protein-complex assay.
For test [18], the target named is Proto-oncogene tyrosine-protein kinase Src (Homo sapiens) (UniProt P12931). Kind of test: Inhibition of recombinant human SRC (1 to 530 residues) assessed as residual activity at 10 uM using GGEEEEYFELVKK as substrate incubated for 40 mins in presence of [gamma33P]ATP by scintillation counting based radiometry assay relative to control.
The target of test [19] is Serine/threonine-protein kinase B-raf (Homo sapiens) (UniProt P15056). Put plainly: Inhibition of recombinant full length human B-Raf (416 to end residues) assessed as residual activity at 10 uM using myelin basic protein substrate incubated for 40 mins in presence of [gamma-33ATP] by scintillation counting based radiometry assay relative to control.
Test [20] concerns the target Tyrosine-protein kinase Lck (Homo sapiens) (UniProt P06239). Put plainly: Inhibition of recombinant full length human LCK assessed as residual activity at 10 uM using KVEKIGEGTYGVV as substrate after 40 mins in presence of [gamma-33ATP] by scintillation counting based radiometry assay relative to control.
Test [21] concerns the target Serine/threonine-protein kinase tousled-like 2 (Homo sapiens) (UniProt Q86UE8). Put plainly: Inhibition of recombinant human TLK2 (387 to end residues) assessed as residual activity at 10 uM using casein as substrate incubated for 40 mins in presence of [gamma33P]ATP by scintillation counting based radiometry assay relative to control.

CDK3/Cyclin E (Homo sapiens), sequence (P24864 whole entry, looked up, the tested form may be a part): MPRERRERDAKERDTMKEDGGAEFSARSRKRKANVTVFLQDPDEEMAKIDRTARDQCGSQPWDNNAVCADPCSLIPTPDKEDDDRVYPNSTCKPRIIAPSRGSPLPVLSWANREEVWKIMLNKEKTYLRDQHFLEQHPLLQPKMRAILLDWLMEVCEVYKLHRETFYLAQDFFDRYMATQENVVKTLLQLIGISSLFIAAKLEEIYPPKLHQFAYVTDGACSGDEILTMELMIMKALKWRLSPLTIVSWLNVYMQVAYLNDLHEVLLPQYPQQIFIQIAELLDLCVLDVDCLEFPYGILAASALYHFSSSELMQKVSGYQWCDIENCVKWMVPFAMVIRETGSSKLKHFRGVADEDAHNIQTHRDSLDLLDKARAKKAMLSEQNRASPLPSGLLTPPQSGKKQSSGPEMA
CDK3/Cyclin E (Homo sapiens), sequence (Q00526 whole entry, looked up, the tested form may be a part): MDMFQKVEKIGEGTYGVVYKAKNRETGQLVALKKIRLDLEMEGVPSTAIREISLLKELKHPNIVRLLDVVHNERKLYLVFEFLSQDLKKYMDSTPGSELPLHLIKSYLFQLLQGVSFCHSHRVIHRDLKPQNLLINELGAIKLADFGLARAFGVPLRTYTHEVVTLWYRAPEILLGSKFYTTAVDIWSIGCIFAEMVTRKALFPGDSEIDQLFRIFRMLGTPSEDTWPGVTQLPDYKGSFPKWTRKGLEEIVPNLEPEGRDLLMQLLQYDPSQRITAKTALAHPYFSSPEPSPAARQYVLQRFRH
Wee1-like protein kinase 2 (Homo sapiens), sequence (P0C1S8 whole entry, looked up): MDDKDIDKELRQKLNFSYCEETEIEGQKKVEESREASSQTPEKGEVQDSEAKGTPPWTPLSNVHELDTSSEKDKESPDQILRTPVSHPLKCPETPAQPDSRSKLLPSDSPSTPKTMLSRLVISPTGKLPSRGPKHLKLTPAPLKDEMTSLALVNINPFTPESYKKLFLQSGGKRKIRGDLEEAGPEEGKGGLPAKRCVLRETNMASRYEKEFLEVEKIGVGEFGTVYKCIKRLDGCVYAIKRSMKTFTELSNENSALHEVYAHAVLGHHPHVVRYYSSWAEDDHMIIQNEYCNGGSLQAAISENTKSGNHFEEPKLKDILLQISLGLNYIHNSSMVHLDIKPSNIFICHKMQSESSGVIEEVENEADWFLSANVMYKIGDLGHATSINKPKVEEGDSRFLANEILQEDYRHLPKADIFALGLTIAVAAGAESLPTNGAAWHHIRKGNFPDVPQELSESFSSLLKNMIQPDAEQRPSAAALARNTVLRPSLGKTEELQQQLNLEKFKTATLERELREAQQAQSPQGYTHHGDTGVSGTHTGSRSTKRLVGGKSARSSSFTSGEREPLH
Aurora kinase B (Homo sapiens), sequence (Q96GD4 whole entry): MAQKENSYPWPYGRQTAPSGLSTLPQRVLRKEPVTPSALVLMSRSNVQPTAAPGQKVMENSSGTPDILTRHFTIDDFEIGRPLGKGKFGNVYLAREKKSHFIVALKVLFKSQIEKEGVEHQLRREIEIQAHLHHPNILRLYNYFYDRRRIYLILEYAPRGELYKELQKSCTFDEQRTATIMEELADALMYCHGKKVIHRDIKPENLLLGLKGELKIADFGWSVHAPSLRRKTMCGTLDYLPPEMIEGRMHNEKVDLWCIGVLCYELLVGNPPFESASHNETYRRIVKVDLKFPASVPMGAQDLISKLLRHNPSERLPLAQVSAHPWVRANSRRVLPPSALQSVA
Rhodopsin kinase GRK1 (Homo sapiens), sequence (Q15835 whole entry, the tested form may be a part): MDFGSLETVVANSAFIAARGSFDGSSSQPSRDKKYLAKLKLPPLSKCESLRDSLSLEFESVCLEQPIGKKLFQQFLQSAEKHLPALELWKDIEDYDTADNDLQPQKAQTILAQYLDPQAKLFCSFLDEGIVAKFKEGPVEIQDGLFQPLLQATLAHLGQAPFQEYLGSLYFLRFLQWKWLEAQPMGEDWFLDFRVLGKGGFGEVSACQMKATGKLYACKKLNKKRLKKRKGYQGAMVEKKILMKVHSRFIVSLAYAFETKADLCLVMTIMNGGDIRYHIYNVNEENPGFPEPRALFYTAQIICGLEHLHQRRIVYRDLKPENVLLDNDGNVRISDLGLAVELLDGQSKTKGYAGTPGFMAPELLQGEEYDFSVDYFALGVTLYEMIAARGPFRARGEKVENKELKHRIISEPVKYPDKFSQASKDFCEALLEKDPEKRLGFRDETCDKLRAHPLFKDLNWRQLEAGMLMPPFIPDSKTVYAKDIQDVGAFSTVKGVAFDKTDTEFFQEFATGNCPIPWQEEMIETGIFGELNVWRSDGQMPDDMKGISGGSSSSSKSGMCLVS
Tyrosine-protein kinase JAK3 (Homo sapiens), sequence (P52333 whole entry, the tested form may be a part): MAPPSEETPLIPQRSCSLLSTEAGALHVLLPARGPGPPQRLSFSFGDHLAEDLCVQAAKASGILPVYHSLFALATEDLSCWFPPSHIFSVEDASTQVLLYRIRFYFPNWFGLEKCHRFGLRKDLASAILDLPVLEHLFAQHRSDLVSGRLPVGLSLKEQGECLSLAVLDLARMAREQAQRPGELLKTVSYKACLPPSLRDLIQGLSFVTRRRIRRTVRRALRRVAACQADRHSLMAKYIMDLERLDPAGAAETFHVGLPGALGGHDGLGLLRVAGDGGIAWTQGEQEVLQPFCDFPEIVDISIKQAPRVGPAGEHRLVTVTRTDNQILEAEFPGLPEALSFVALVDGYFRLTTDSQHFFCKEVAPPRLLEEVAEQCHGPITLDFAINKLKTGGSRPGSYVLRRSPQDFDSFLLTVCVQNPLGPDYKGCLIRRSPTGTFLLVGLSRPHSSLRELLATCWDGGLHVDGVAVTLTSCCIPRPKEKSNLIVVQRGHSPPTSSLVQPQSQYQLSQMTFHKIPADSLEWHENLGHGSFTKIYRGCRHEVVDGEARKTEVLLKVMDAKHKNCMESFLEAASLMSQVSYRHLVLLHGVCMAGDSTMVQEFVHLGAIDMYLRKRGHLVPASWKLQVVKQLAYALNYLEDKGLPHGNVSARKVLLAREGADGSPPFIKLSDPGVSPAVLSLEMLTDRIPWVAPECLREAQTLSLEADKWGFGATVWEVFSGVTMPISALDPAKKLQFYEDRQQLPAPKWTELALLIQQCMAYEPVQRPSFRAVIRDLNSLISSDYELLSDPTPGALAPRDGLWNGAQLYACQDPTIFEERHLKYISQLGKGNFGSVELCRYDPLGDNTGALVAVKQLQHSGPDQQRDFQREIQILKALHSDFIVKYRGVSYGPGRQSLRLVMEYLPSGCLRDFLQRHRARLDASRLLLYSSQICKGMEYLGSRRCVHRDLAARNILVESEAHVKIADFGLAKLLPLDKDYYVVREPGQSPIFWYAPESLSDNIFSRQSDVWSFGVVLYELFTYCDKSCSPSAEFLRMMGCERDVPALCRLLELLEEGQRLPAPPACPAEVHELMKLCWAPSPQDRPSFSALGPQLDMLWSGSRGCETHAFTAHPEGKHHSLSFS

`C[C@@H](c1ccccc1)n1nnc2cnc3ccc(-c4cnc5[nH]ccc5c4)cc3c21`: the Activity in test [1] amounted to 87%; in [2], 90%; in test [3], 43%; in test [4] it was 75%; in [5], 3%; in [6], 55%. Besides, the Activity in test [7] amounted to 66%; in [8] it was 90%; in test [9] it was 103%; in [10], 16%; in test [11], 39%; in test [12] it was 91%. Moreover, the Activity turned out to be 96% in [13]; 99% in test [14]; 34% in [15]; 94% in [16]; 71% in test [17]; 15% in [18]. Moreover, the results for the Activity in test [19], in test [20] and in test [21] were 73%, 6% and 106%, respectively.
